# What was measured:
# [1] = Solubility measured with a toluene solution (absorbance of the supernatant of a supersaturated solution); type: physicochemical; conditions: room temperature, from absorbance and molar extinction coefficient
# Experimental: The solubility in toluene at room temperature can be determined from the absorbance in accordance with the Beer-Lambert law. First, a molar extinction coefficient is determined using a fullerene derivative toluene solution of a known concentration. A predetermined amount of the supernatant of a supersaturated fullerene derivative toluene solution is weighed, and the absorbance of this solution is measured. The concentration is calculated from the following equation. C=A/εd wherein C is a concentration; A is an absorbance; ε is a molar extinction coefficient; and d is a cell length for absorbance measurement (1 cm)
# The solubility of each fullerene derivative was calculated from the absorbance measured with an ultraviolet-visible absorptiometer.
# In advance, the absorbance of the fullerene derivatives of a predetermined concentration was measured to determine the molar extinction coefficient of each compound.
# A supersaturated toluene solution of a fullerene derivative was prepared. A predetermined amount of the supernatant of this solution was taken out, and its absorbance was measured.
# From the measured absorbance value and the molar extinction coefficient, the concentration of the supernatant of the supersaturated toluene solution was determined.
# [2] = LUMO level estimated from cyclic voltammetry (CV); type: physicochemical; conditions: for E1/2^1, half-wave potential of the first reduction wave: CV, 3-electrode system, chlorobenzene:acetonitrile=5:1, n-Bu4NPF6 0.1 mol/L; for LUMO: ELUMO=−(E1/2^1+4.8) eV, from CV
# Experimental: The LUMO level can be measured by a method according to Karakawa et al., Journal of Materials Chemistry A, 2014, vol. 2, p. 20889.
# The LUMO level of the fullerene derivatives obtained in Synthesis Examples and the control compounds was estimated from the measured values in cyclic voltammetry (CV).
# The measurement was performed in accordance with the experiment section in M. Karakawa et al., Journal of Material Chemistry A, 2014, vol. 2, p. 20889. • Measurement Device: BAS CV-50W Voltammetric Analyzer • Measurement Solvent: Chlorobenzene:Acetonitrile=5:1 • Supporting Electrolyte: n-Bu4NPF6 concentration 0.1 mol/L
# The LUMO level is calculated from the half-wave potential E1/2^1 (Fc/Fc^+ benchmark) of the first reduction wave measured by CV (3-electrode system) using the following equation. ELUMO=−(E1/2^1+4.8)ev
Structure (SMILES),Solubility in Toluene [1] [%],"E1/2^1, half-wave potential of the first reduction wave [2] [V vs Fc/Fc^++]",LUMO [2] [eV]
CCCCCCC1N(c2ccccc2)C(c2ccccc2)C23c4c5c6c7c8c9c(c%10c%11c2c2c%12c4c4c%13c5c5c7c7c8c8c%14c9c%10c9c%10c%11c2c2c%11c%12c4c4c%12c%13c5c5c7c7c8c8c%14c9c9c%10c2c2c%11c4c4c%12c5c7c5c8c9c2c45)C613 (stereo not drawn) [Compound 1],0.5,−1.16,−3.64
CCCCC(CC)CC1N(c2ccccc2)C(c2ccccc2)C23c4c5c6c7c8c9c(c%10c%11c2c2c%12c4c4c%13c5c5c7c7c8c8c%14c9c%10c9c%10c%11c2c2c%11c%12c4c4c%12c%13c5c5c7c7c8c8c%14c9c9c%10c2c2c%11c4c4c%12c5c7c5c8c9c2c45)C613 (stereo not drawn) [Compound 2],1.0,−1.17,−3.63
COCCOCCOCC1N(c2ccccc2)C(c2ccccc2)C23c4c5c6c7c8c9c(c%10c%11c2c2c%12c4c4c%13c5c5c7c7c8c8c%14c9c%10c9c%10c%11c2c2c%11c%12c4c4c%12c%13c5c5c7c7c8c8c%14c9c9c%10c2c2c%11c4c4c%12c5c7c5c8c9c2c45)C613 (stereo not drawn) [Compound 3],0.5,−1.17,−3.63
CCCCOCC1N(c2ccccc2)C(c2ccccc2)C23c4c5c6c7c8c9c(c%10c%11c2c2c%12c4c4c%13c5c5c7c7c8c8c%14c9c%10c9c%10c%11c2c2c%11c%12c4c4c%12c%13c5c5c7c7c8c8c%14c9c9c%10c2c2c%11c4c4c%12c5c7c5c8c9c2c45)C613 (stereo not drawn) [Compound 4],0.5,−1.17,−3.63
CCCCCCC1N(c2ccccc2)C(CC(CC)CCCC)C23c4c5c6c7c8c9c(c%10c%11c2c2c%12c4c4c%13c5c5c7c7c8c8c%14c9c%10c9c%10c%11c2c2c%11c%12c4c4c%12c%13c5c5c7c7c8c8c%14c9c9c%10c2c2c%11c4c4c%12c5c7c5c8c9c2c45)C613 (stereo not drawn) [Compound 8],7.0,,
"C1=CC2=c3ccc4c5ccc6c7ccc8c9ccc%10c%11c%12c%13c%14c(c3c4c3c5c6c4c7c8c(c%119)c%13c4c%143)C23C(c2ccccc2)N(c2ccccc2)CC%123C=%101 (stereo not drawn) [Control Compound 1, reference compound]",0.3,−1.13,−3.67
"CCCCCCC1N(c2ccccc2)CC23C4=c5ccc6c7ccc8c9ccc%10c%11ccc%12c%13c(c%14c%15c2c5c6c2c7c8c5c9c%10c(c%13%11)c%14c5c%152)C13C=%12C=C4 (stereo not drawn) [Control Compound 2, reference compound]",1.8,−1.14,−3.66
"COC(=O)CCCC1(c2ccccc2)C23c4c5c6c7c8c9c(c%10c%11c2c2c%12c4c4c%13c5c5c7c7c8c8c%14c9c%10c9c%10c%11c2c2c%11c%12c4c4c%12c%13c5c5c7c7c8c8c%14c9c9c%10c2c2c%11c4c4c%12c5c7c5c8c9c2c45)C613 (stereo not drawn) [[60]PCBM, [6,6]-phenyl-C61-butyric acid methyl ester, reference compound]",,−1.13,−3.67

# Reference: patent US10894770B2, “Fullerene derivative and n-type semiconductor material” (DAIKIN INDUSTRIES, LTD., priority 2015, dated 2021)
